Data from the supplement of paper PMC10883282.
Counter-ions that a name gives are not always drawn. ± gives the standard deviation of the averaged measurements.

Test system: MES-SA
Test: relative viability vs DMSO control (72 h) (fraction); higher = more viable cells
How it was run: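 Sarcoma cell lines were seeded in 384-well plates at densities chosen for 80–90% confluence, then 24 h later given 2.5 µl of serially diluted compound drawn from source plates spanning 10 mM to 0.0002 mM. They were held 72 h at 37 °C, 5% CO2, with 0.1% DMSO vehicle and a 5 µM positive control included. Relative viability was read with ATPLite as percent growth and averaged over up to triplicate wells. Rescaling placed full at 1 and none at 0.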

Row | SMILES | relative viability (0.00017 µM) | relative viability (0.00051 µM) | relative viability (0.00152 µM) | relative viability (0.00457 µM) | relative viability (0.01372 µM) | relative viability (0.04115 µM) | relative viability (0.1235 µM) | relative viability (0.3704 µM) | relative viability (1.111 µM) | relative viability (3.333 µM) | relative viability (10 µM)
1 | O=C(Nc1cnn2ccc(N3CCC[C@@H]3c3cc(F)ccc3F)nc12)N1CC[C@H](O)C1 [Larotrectinib] | 0.929 ± 0.024 | 0.932 ± 0.046 | 0.923 ± 0.054 | 0.896 ± 0.056 | 0.931 ± 0.022 | 0.929 ± 0.039 | 0.894 ± 0.073 | 0.897 ± 0.022 | 0.916 ± 0.027 | 0.893 ± 0.048 | 0.877 ± 0.015
2 | C[C@@H]1COCCN1c1cc(-c2ccnn2C)c2ccnc(-c3ccn[nH]3)c2n1 | 0.952 ± 0.028 | 0.934 ± 0.025 | 0.9269 ± 0.0056 | 0.924 ± 0.028 | 0.878 ± 0.013 | 0.752 ± 0.019 | 0.489 ± 0.012 | 0.31 ± 0.022 | 0.175 ± 0.0043 | 0.122 ± 0.0046 | 0.113 ± 0.003
3 | CC(C)N1CCN(Cc2cnc(-c3cc(-c4cccc5[nH]ccc45)cc4[nH]ncc34)o2)CC1 [Nemiralisib] | 0.967 ± 0.032 | 0.961 ± 0.022 | 0.953 ± 0.05 | 0.958 ± 0.05 | 0.977 ± 0.033 | 0.926 ± 0.039 | 0.979 ± 0.047 | 0.964 ± 0.043 | 0.911 ± 0.024 | 0.764 ± 0.028 | 0.486 ± 0.027
4 | COc1cccc2c1C(=O)c1c(O)c3c(c(O)c1C2=O)C[C@@](O)(C(=O)CO)C[C@@H]3O[C@H]1C[C@H](N)[C@H](O)[C@H](C)O1 [Doxorubicin Hydrochloride] | 0.975 ± 0.028 | 0.937 ± 0.042 | 0.934 ± 0.024 | 0.89 ± 0.024 | 0.66 ± 0.036 | 0.39 ± 0.0073 | 0.313 ± 0.01 | 0.201 ± 0.0045 | 0.0143 ± 0.0029 | 0.0402 ± 0.002 | 0.03487 ± 0.00029
5 | Nc1cc(C(F)(F)F)c(-c2cc(N3CCOCC3)nc(N3CCOCC3)n2)cn1 [Buparlisib] | 0.897 ± 0.012 | 0.902 ± 0.0092 | 0.895 ± 0.011 | 0.932 ± 0.022 | 0.907 ± 0.023 | 0.872 ± 0.022 | 0.811 ± 0.022 | 0.677 ± 0.025 | 0.208 ± 0.01 | 0.0825 ± 0.0014 | 0.037 ± 0.0019
6 | Cc1cc(Nc2ncnc3ccc(NC4=NC(C)(C)CO4)cc23)ccc1Oc1ccn2ncnc2c1 [Tucatinib] | 0.988 ± 0.052 | 0.9678 ± 0.005 | 0.961 ± 0.03 | 0.95 ± 0.022 | 0.948 ± 0.031 | 0.939 ± 0.035 | 0.916 ± 0.013 | 0.89 ± 0.049 | 0.857 ± 0.0086 | 0.796 ± 0.02 | 0.515 ± 0.042
7 | Cc1nc(-c2cn3c(n2)-c2ccc(-c4cnn(C(C)(C)C(N)=O)c4)cc2OCC3)n(C(C)C)n1 [Taselisib] | 0.901 ± 0.028 | 0.9023 ± 0.004 | 0.887 ± 0.033 | 0.858 ± 0.021 | 0.797 ± 0.035 | 0.692 ± 0.01 | 0.504 ± 0.015 | 0.386 ± 0.014 | 0.299 ± 0.0098 | 0.214 ± 0.0027 | 0.146 ± 0.0072
8 | CN1CCC(COc2cnc(-c3cccc(Cn4nc(-c5cccc(C#N)c5)ccc4=O)c3)nc2)CC1 [Tepotinib] | 0.962 ± 0.038 | 0.959 ± 0.0044 | 0.95 ± 0.023 | 0.974 ± 0.033 | 0.955 ± 0.043 | 0.928 ± 0.035 | 0.939 ± 0.028 | 0.9528 ± 0.0065 | 0.94 ± 0.042 | 0.875 ± 0.027 | 0.752 ± 0.024
9 | CNC(=O)c1cc(Oc2ccc(NC(=O)Nc3ccc(Cl)c(C(F)(F)F)c3)c(F)c2)ccn1 [Regorafenib] | 0.973 ± 0.026 | 0.9876 ± 0.0026 | 0.972 ± 0.037 | 0.955 ± 0.036 | 0.968 ± 0.022 | 0.96 ± 0.03 | 0.997 ± 0.067 | 0.965 ± 0.045 | 0.923 ± 0.064 | 0.735 ± 0.038 | 0.246 ± 0.01
10 | CCCS(=O)(=O)Nc1ccc(F)c(C(=O)c2c[nH]c3ncc(-c4ccc(Cl)cc4)cc23)c1F [Vemurafenib] | 0.941 ± 0.024 | 0.951 ± 0.025 | 0.957 ± 0.013 | 0.957 ± 0.026 | 0.955 ± 0.031 | 0.953 ± 0.018 | 0.967 ± 0.028 | 0.995 ± 0.022 | 0.9726 ± 0.0075 | 0.782 ± 0.02 | 0.51 ± 0.01
11 | COc1c(OCCCN2CCOCC2)ccc2c1N=C(NC(=O)c1cnc(N)nc1)N1CCN=C21 [Copanlisib] | 0.966 ± 0.029 | 0.926 ± 0.031 | 0.9 ± 0.019 | 0.633 ± 0.029 | 0.502 ± 0.016 | 0.374 ± 0.0084 | 0.273 ± 0.0095 | 0.164 ± 0.0066 | 0.147 ± 0.0029 | 0.18 ± 0.0026 | 0.159 ± 0.0078
12 | CC(=O)Nc1cccc(-n2c(=O)n(C3CC3)c(=O)c3c(Nc4ccc(I)cc4F)n(C)c(=O)c(C)c32)c1 [Trametinib] | 0.968 ± 0.022 | 0.965 ± 0.012 | 0.929 ± 0.017 | 0.873 ± 0.029 | 0.831 ± 0.015 | 0.78 ± 0.011 | 0.76 ± 0.015 | 0.736 ± 0.034 | 0.683 ± 0.032 | 0.701 ± 0.017 | 0.6906 ± 0.006
13 | COCc1c(-c2cc3cc(C)cc(OC)c3s2)c2c(N)ncnn2c1CN1CCNC(=O)C1 [Rogaratinib] | 0.974 ± 0.012 | 0.9554 ± 0.0066 | 0.943 ± 0.014 | 0.929 ± 0.014 | 0.939 ± 0.025 | 0.949 ± 0.046 | 0.849 ± 0.018 | 0.732 ± 0.02 | 0.664 ± 0.035 | 0.565 ± 0.012 | 0.389 ± 0.019
14 | COc1cc2/c(=N/c3ccc(Br)cc3F)nc[nH]c2cc1OCC1CCN(C)CC1 [Vandetanib] | 0.907 ± 0.02 | 0.925 ± 0.033 | 0.9 ± 0.013 | 0.932 ± 0.041 | 0.909 ± 0.053 | 0.907 ± 0.054 | 0.926 ± 0.022 | 0.909 ± 0.035 | 0.804 ± 0.029 | 0.6028 ± 0.0021 | 0.127 ± 0.0064
